Experimental data taken from patent publication US20230250066A1, “HERBICIDAL CINNOLINE DERIVATIVES” (SYNGENTA CROP PROTECTION AG, priority 2020, published 2023).

Key:
Type in all cases: in vivo
[1] = tested on: Abutilon theophrasti (ABUTH); assay: Pre-emergence herbicidal test; conditions: 1000 g/ha, evaluated after 13 days
[2] = tested on: Amaranthus retoflexus (AMARE); assay: Pre-emergence herbicidal test; conditions: 1000 g/ha, evaluated after 13 days
[3] = tested on: Zea mays (ZEAMX); assay: Pre-emergence herbicidal test; conditions: 1000 g/ha, evaluated after 13 days
[4] = tested on: Setaria faberi (SETFA); assay: Pre-emergence herbicidal test; conditions: 1000 g/ha, evaluated after 13 days
[5] = tested on: Ipomoea hederacea (IPOHE); assay: Pre-emergence herbicidal test; conditions: 1000 g/ha, evaluated after 13 days
[6] = tested on: Echinochloa crus-galli (ECHCG); assay: Pre-emergence herbicidal test; conditions: 1000 g/ha, evaluated after 13 days
[7] = tested on: Abutilon theophrasti (ABUTH); assay: Post-emergence herbicidal test; conditions: 1000 g/ha unless otherwise stated, evaluated after 13 days
Description: (§1) Seeds of a variety of test species are sown in standard soil in pots (Amaranthus retoflexus (AMARE), Solanum nigrum (SOLNI), Setaria faberi (SETFA), Lolium perenne (LOLPE), Echinochloa crus-galli (ECHCG), Ipomoea hederacea (IPOHE), Abutilon theophrasti (ABUTH), Zea mays (ZEAMX)). After 8 days cultivation under controlled conditions in a glasshouse (at 24° C./16° C., day/night; 14 hours light; 65% humidity), the plants are sprayed with an aqueous spray solution derived from the formulation of the technical active ingredient in acetone/water (50:50) solution containing 0.5% Tween 20 (polyoxyethelyene sorbitan monolaurate, CAS RN 9005-64-5). Compounds are applied at 1000 g/ha unless otherwise stated. The test plants are then grown in a glasshouse under controlled conditions in a glasshouse (at 24° C./16° C., day/night; 14 hours light; 65% humidity) and watered twice daily. After 13 days the test is evaluated for the percentage damage caused to the plant. The biological activities are shown in the following table on a five-point scale (5=81-100%; 4=61-80%; 3=41-60%; 2=21-40%; 1=10-20%; 0=0%;−=not tested).

[8] = tested on: Echinochloa crus-galli (ECHCG); assay: Post-emergence herbicidal test; conditions: 1000 g/ha unless otherwise stated, evaluated after 13 days
Description: as §1

[9] = tested on: Ipomoea hederacea (IPOHE); assay: Post-emergence herbicidal test; conditions: 1000 g/ha unless otherwise stated, evaluated after 13 days
Description: as §1

[10] = tested on: Setaria faberi (SETFA); assay: Post-emergence herbicidal test; conditions: 1000 g/ha unless otherwise stated, evaluated after 13 days
Description: as §1

[11] = tested on: Amaranthus retoflexus (AMARE); assay: Post-emergence herbicidal test; conditions: 1000 g/ha unless otherwise stated, evaluated after 13 days
Description: as §1

[12] = tested on: Zea mays (ZEAMX); assay: Post-emergence herbicidal test; conditions: 1000 g/ha unless otherwise stated, evaluated after 13 days
Description: as §1

O=C(O)c1nn(-c2ccc(OC(F)(F)F)cc2)c2cccc(S(=O)(=O)C3CC3)c2c1=O [Compound P29, 5-cyclopropylsulfonyl-4-oxo-1-[4-(trifluoromethoxy)phenyl]cinnoline-3-carboxylic acid]
percentage damage caused to the plant, five-point scale, ABUTH [1]: 0 (0=0%)
percentage damage caused to the plant, five-point scale, AMARE [2]: 0 (0=0%)
percentage damage caused to the plant, five-point scale, ZEAMX [3]: 0 (0=0%)
percentage damage caused to the plant, five-point scale, SETFA [4]: 0 (0=0%)
percentage damage caused to the plant, five-point scale, IPOHE [5]: 0 (0=0%)
percentage damage caused to the plant, five-point scale, ECHCG [6]: 0 (0=0%)
percentage damage caused to the plant, ABUTH (five-point scale) [7]: 0 (0=0%)
percentage damage caused to the plant, ECHCG (five-point scale) [8]: 0 (0=0%)
percentage damage caused to the plant, IPOHE (five-point scale) [9]: 0 (0=0%)
percentage damage caused to the plant, SETFA (five-point scale) [10]: 0 (0=0%)
percentage damage caused to the plant, AMARE (five-point scale) [11]: 0 (0=0%)
percentage damage caused to the plant, ZEAMX (five-point scale) [12]: 0 (0=0%)

O=C(O)c1nn(-c2ccc(OC(F)(F)F)cc2)c2cccc(SC3CC3)c2c1=O [Compound P30, 5-cyclopropylsulfanyl-4-oxo-1-[4-(trifluoromethoxy)phenyl]cinnoline-3-carboxylic acid]
percentage damage caused to the plant, five-point scale, ABUTH [1]: 0 (0=0%)
percentage damage caused to the plant, five-point scale, AMARE [2]: 0 (0=0%)
percentage damage caused to the plant, five-point scale, ZEAMX [3]: 0 (0=0%)
percentage damage caused to the plant, five-point scale, SETFA [4]: 0 (0=0%)
percentage damage caused to the plant, five-point scale, IPOHE [5]: 0 (0=0%)
percentage damage caused to the plant, five-point scale, ECHCG [6]: 0 (0=0%)
percentage damage caused to the plant, ABUTH (five-point scale) [7]: 1 (1=10-20%)
percentage damage caused to the plant, ECHCG (five-point scale) [8]: 1 (1=10-20%)
percentage damage caused to the plant, IPOHE (five-point scale) [9]: 1 (1=10-20%)
percentage damage caused to the plant, SETFA (five-point scale) [10]: 1 (1=10-20%)
percentage damage caused to the plant, AMARE (five-point scale) [11]: 1 (1=10-20%)
percentage damage caused to the plant, ZEAMX (five-point scale) [12]: 1 (1=10-20%)

O=C(O)c1nn(-c2ccc(OC(F)(F)F)cc2)c2cccc([S+]([O-])C3CC3)c2c1=O (stereo not drawn) [Compound P31, 5-cyclopropylsulfinyl-4-oxo-1-[4-(trifluoromethoxy)phenyl]cinnoline-3-carboxylic acid]
percentage damage caused to the plant, five-point scale, ABUTH [1]: 0 (0=0%)
percentage damage caused to the plant, five-point scale, AMARE [2]: 0 (0=0%)
percentage damage caused to the plant, five-point scale, ZEAMX [3]: 0 (0=0%)
percentage damage caused to the plant, five-point scale, SETFA [4]: 0 (0=0%)
percentage damage caused to the plant, five-point scale, IPOHE [5]: 0 (0=0%)
percentage damage caused to the plant, five-point scale, ECHCG [6]: 0 (0=0%)
percentage damage caused to the plant, ABUTH (five-point scale) [7]: 0 (0=0%)
percentage damage caused to the plant, ECHCG (five-point scale) [8]: 0 (0=0%)
percentage damage caused to the plant, IPOHE (five-point scale) [9]: 0 (0=0%)
percentage damage caused to the plant, SETFA (five-point scale) [10]: 0 (0=0%)
percentage damage caused to the plant, AMARE (five-point scale) [11]: 0 (0=0%)
percentage damage caused to the plant, ZEAMX (five-point scale) [12]: 0 (0=0%)

CCOC(=O)c1nn(-c2ccc(OC(F)(F)F)cc2)c2cccc([S+]([O-])C3CC3)c2c1=O (stereo not drawn) [Compound P32, ethyl 5-cyclopropylsulfinyl-4-oxo-1-[4-(trifluoromethoxy)phenyl]cinnoline-3-carboxylate]
percentage damage caused to the plant, five-point scale, ABUTH [1]: 0 (0=0%)
percentage damage caused to the plant, five-point scale, AMARE [2]: 0 (0=0%)
percentage damage caused to the plant, five-point scale, ZEAMX [3]: 0 (0=0%)
percentage damage caused to the plant, five-point scale, SETFA [4]: 2 (2=21-40%)
percentage damage caused to the plant, five-point scale, IPOHE [5]: 0 (0=0%)
percentage damage caused to the plant, five-point scale, ECHCG [6]: 1 (1=10-20%)
percentage damage caused to the plant, ABUTH (five-point scale) [7]: 0 (0=0%)
percentage damage caused to the plant, ECHCG (five-point scale) [8]: 1 (1=10-20%)
percentage damage caused to the plant, IPOHE (five-point scale) [9]: 0 (0=0%)
percentage damage caused to the plant, SETFA (five-point scale) [10]: 1 (1=10-20%)
percentage damage caused to the plant, AMARE (five-point scale) [11]: 0 (0=0%)
percentage damage caused to the plant, ZEAMX (five-point scale) [12]: 1 (1=10-20%)

CCOC(=O)c1nn(-c2ccc(OC(F)(F)F)cc2)c2cccc(SC3CC3)c2c1=O [Compound P33, ethyl 5-cyclopropylsulfanyl-4-oxo-1-[4-(trifluoromethoxy)phenyl]cinnoline-3-carboxylate]
percentage damage caused to the plant, five-point scale, ABUTH [1]: 0 (0=0%)
percentage damage caused to the plant, five-point scale, AMARE [2]: 0 (0=0%)
percentage damage caused to the plant, five-point scale, ZEAMX [3]: 0 (0=0%)
percentage damage caused to the plant, five-point scale, SETFA [4]: 2 (2=21-40%)
percentage damage caused to the plant, five-point scale, IPOHE [5]: 0 (0=0%)
percentage damage caused to the plant, five-point scale, ECHCG [6]: 1 (1=10-20%)
percentage damage caused to the plant, ABUTH (five-point scale) [7]: 1 (1=10-20%)
percentage damage caused to the plant, ECHCG (five-point scale) [8]: 0 (0=0%)
percentage damage caused to the plant, IPOHE (five-point scale) [9]: 0 (0=0%)
percentage damage caused to the plant, SETFA (five-point scale) [10]: 0 (0=0%)
percentage damage caused to the plant, AMARE (five-point scale) [11]: 0 (0=0%)
percentage damage caused to the plant, ZEAMX (five-point scale) [12]: 0 (0=0%)
